Columns and labels:
[1] = molecular target: hADORA1/CHO (hA1 expressing) cells (Homo sapiens (Human), UniProt P30542); assay: cell-based; details: FLIPR inhibition, 10 μM adenosine, read-out: cAMP & FLIPR IC50 (nM) hA1
hA2a/CHO = hA2a/CHO (Homo sapiens (Human), UniProt P29274); assay: cAMP inhibition assay in hA2a/CHO cells, 10 μM adenosine; assay type: cell-based; details: read-out: cAMP & FLIPR IC50 (nM) hA2a;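 note: compounds added to cells 30 min ahead of adenosine, then a further 30 min at 37 °C with adenosine before cAMP detection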
Sequence of hA2a/CHO (P29274 whole entry): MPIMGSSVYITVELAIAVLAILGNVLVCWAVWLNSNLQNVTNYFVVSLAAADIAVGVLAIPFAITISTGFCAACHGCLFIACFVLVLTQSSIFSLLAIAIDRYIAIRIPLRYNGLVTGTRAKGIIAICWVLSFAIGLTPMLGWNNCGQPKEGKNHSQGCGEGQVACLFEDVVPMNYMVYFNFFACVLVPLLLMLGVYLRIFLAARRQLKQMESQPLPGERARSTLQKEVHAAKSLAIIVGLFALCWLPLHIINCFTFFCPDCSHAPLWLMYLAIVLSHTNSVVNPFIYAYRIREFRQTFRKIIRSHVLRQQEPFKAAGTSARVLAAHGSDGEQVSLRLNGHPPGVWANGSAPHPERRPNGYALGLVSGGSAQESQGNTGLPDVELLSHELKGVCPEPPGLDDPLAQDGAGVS
Protocol: (§1) hA2a/CHO, hA2b/CHO, hA3/CHO and mA2a/CHO (Genscript) were plated at 5×10^3 cells/well into 384-well polystyrene plates at the day of experiment. Compounds were pre-incubated with cells for 30 min at 37° C., 5% CO2. Then 10 μM adenosine was added to the cells and incubated for 30 min at 37° C., 5% CO2. Detection reagent (CISBIO) was added and the plates were incubated for 60 min at room temperature. The signal was captured by Envision.

hA2b/CHO = hA2b/CHO (Homo sapiens (Human), UniProt P29275); assay: cAMP inhibition assay in hA2b/CHO cells, 10 μM adenosine; assay type: cell-based; details: read-out: cAMP & FLIPR IC50 (nM) hA2b;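 note: cells exposed to compound 30 min at 37 °C, then stimulated with adenosine a further 30 min, cAMP read after 60 min at room temperature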
Sequence of hA2b/CHO (P29275 whole entry): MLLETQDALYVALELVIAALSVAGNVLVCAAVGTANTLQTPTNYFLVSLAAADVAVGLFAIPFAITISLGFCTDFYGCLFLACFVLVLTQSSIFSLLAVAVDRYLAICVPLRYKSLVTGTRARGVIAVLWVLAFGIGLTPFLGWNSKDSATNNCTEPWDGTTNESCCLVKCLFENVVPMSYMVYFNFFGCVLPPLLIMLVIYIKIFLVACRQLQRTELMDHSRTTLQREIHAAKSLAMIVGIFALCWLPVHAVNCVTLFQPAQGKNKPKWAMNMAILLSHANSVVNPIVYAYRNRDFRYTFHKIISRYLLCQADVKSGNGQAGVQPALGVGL
Protocol: as §1

mA2a/CHO = mA2a/CHO (Mus musculus (Mouse), UniProt Q60613); assay: cAMP inhibition assay in mA2a/CHO cells, 10 μM adenosine; assay type: cell-based; details: read-out: cAMP & FLIPR IC50 (nM) mA2a;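 note: compounds preincubated 30 min at 37 °C before the adenosine challenge, then 30 min further stimulation, readout after 60 min detection reagent incubation at room temperature in 384-well plates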
Sequence of mA2a/CHO (Q60613 whole entry): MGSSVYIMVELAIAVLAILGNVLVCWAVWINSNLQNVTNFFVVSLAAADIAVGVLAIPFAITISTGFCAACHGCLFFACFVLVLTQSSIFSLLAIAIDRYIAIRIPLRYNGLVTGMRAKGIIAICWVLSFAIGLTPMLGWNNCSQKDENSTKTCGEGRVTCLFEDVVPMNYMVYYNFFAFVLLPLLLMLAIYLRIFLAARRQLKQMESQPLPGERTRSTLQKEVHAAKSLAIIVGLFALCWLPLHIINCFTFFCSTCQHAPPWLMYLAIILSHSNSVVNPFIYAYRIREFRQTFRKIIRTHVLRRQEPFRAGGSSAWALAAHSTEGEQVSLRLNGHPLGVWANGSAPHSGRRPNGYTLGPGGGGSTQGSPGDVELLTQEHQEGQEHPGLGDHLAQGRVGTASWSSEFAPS
Protocol: as §1

Sequence of hADORA1/CHO (hA1 expressing) cells (P30542 whole entry): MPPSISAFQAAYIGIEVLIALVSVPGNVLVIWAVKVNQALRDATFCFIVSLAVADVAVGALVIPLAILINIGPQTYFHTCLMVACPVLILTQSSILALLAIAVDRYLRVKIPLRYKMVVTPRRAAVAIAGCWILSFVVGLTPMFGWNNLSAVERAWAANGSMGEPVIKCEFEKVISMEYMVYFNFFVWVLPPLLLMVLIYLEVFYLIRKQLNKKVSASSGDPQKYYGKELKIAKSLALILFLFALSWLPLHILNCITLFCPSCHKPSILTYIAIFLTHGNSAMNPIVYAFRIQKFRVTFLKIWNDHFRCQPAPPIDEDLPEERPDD

SMILES	IC50 [1] [nM]	IC50 (hA2a/CHO) [nM]	IC50 (hA2b/CHO) [nM]	IC50 (mA2a/CHO) [nM]
CN1CCCC1CNC(=O)c1nc(-c2ccc3ncc(C(F)(F)F)n3c2)c(-c2ncco2)nc1N (single isomer, unassigned) [Cmpd. 202, 3-amino-N-[[1-methylpyrrolidin-2-yl]methyl]-5-(1,3-oxazol-2-yl)-6-[3-(trifluoromethyl)imidazo[1,2-a]pyridin-6-yl]pyrazine-2-carboxamide]	6920	17	1130	105
CN1CCCC1CNC(=O)c1nc(-c2ccc3ncc(C(F)(F)F)n3c2)c(-c2ncco2)nc1N (single isomer, unassigned) [Cmpd. 206]	2490	5.3	707	50
CC(O)Cn1cc(-c2nc(C(=O)NCc3c(F)cccc3F)c(N)nc2-c2ncco2)ccc1=O (single isomer, unassigned) [Example 107, 3-amino-N-(2,6-difluorobenzyl)-6-(1-(2-hydroxypropyl)-6-oxo-1,6-dihydropyridin-3-yl)-5-(oxazol-2-yl)pyrazine-2-carboxamide]	341	76	3490	166
CC(O)Cn1cc(-c2nc(C(=O)NCc3c(F)cccc3F)c(N)nc2-c2ncco2)ccc1=O (single isomer, unassigned) [Example 108, 3-amino-N-(2,6-difluorobenzyl)-6-(1-(2-hydroxypropyl)-6-oxo-1,6-dihydropyridin-3-yl)-5-(oxazol-2-yl)pyrazine-2-carboxamide]	55	0.6	132	3.6
Cc1cnc2ccc(-c3nc(C(=O)NCC4CCCCN4C)c(N)nc3-c3ncco3)cn12 (single isomer, unassigned; isomer 1) [Example 124, 3-amino-6-(3-methylimidazo[1,2-a]pyridin-6-yl)-N-((1-methylpiperidin-2-yl)methyl)-5-(oxazol-2-yl)pyrazine-2-carboxamide (isomer 1)]	10000	2260	≥ 10000	≥ 10000
Cc1cnc2ccc(-c3nc(C(=O)N[C@H]4CCCOC4)c(N)nc3-c3ncco3)cn12 (single isomer, unassigned; isomer 1) [Example 163, 3-amino-6-(3-methylimidazo[1,2-a]pyridin-6-yl)-5-(oxazol-2-yl)-N-(tetrahydro-2H-pyran-3-yl)pyrazine-2-carboxamide (isomer 1)]	> 10000	3.28	387	22
Cc1cnc2ccc(-c3nc(C(=O)NCC4CCCCO4)c(N)nc3-c3ncco3)cn12 (single isomer, unassigned; isomer 1) [Example 165, 3-amino-6-(3-methylimidazo[1,2-a]pyridin-6-yl)-5-(oxazol-2-yl)-N-((tetrahydro-2H-pyran-2-yl)methyl) pyrazine-2-carboxamide (isomer 1)]	207	0.24	73	1.42
Cc1cnc2ccc(-c3nc(C(=O)NCC4CC(=O)N(C)C4)c(N)nc3-c3ncco3)cn12 (single isomer, unassigned; isomer 1) [Example 213, 3-amino-N-((1-methyl-5-oxopyrrolidin-3-yl)methyl)-6-(3-methylimidazo[1,2-ajpyridin-6-yl)-5-(oxazol-2-yl)pyrazine-2-carboxamide (isomer 1)]	505	22	2530	54
Cc1cnc2ccc(-c3nc(C(=O)NCC4CN(C)CCO4)c(N)nc3-c3ccc(F)cc3)cn12 (single isomer, unassigned; isomer 1) [Example 246, 3-amino-5-(4-fluorophenyl)-6-(3-methylimidazo[1,2-a]pyridin-6-yl)-N-((4-methylmorpholin-2-yl)methyl) pyrazine-2-carboxamide (isomer 1)]	44	17	1100	67
